Assay results as given in patent publication US9567302B2, “Carbamate compounds and of making and using same” (Abide Therapeutics, Inc., priority 2012, dated 2017).

How the values were obtained:
Assay type in all cases: biochemical
Design in all cases: from tissue; host or cells: mouse brain membrane fraction
ABHD6 = target: T1, ABHD6 (Mus musculus, UniProt Q8R2Y0); test: In vitro competitive activity-based protein profiling (FP-Rh), mouse ABHD6; conditions: Table 1, mouse proteome, 30 min preincubation at 37° C.
T1 sequence (Q8R2Y0 1-336): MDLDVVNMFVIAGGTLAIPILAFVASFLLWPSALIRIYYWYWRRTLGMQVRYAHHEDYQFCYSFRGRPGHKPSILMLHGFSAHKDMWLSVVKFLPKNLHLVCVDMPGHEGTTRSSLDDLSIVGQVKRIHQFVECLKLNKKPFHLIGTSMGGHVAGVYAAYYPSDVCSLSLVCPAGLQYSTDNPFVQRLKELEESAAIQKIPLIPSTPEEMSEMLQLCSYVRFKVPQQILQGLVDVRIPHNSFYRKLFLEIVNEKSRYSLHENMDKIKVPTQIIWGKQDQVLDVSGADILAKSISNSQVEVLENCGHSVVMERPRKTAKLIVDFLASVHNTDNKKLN
Method: (§1) In Vitro Competitive Activity-Based Protein Profiling.
(§2) Proteomes (mouse brain membrane fraction or cell lysates) (50 μL, 1.0 mg/ml total protein concentration) were preincubated with varying concentrations of inhibitors at 37° C. After 30 min, FP-Rh (1.0 μL, 50 μM in DMSO) was added and the mixture was incubated for another 30 min at 37° C. Reactions were quenched with SDS loading buffer (50 μL—4×) and run on SDS-PAGE.

FAAH = target: T2, FAAH (Mus musculus, UniProt O08914); test: In vitro competitive activity-based protein profiling (FP-Rh), mouse FAAH; conditions: Table 1, mouse proteome, 30 min preincubation at 37° C.
T2 sequence (O08914 1-579): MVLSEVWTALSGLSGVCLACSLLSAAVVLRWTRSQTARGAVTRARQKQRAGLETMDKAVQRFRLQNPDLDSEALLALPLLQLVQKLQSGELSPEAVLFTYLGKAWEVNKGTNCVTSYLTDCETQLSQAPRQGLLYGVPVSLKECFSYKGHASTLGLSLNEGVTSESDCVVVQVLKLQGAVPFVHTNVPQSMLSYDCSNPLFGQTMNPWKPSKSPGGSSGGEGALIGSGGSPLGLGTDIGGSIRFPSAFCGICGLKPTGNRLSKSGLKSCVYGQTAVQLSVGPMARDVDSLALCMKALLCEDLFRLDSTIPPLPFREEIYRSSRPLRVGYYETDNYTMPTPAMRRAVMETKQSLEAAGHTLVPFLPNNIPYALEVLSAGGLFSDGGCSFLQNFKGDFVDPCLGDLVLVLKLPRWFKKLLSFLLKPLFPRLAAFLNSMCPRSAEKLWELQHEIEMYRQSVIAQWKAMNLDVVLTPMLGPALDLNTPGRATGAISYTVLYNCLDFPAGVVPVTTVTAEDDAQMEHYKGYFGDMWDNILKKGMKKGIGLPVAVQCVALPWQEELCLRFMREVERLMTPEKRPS
Method: as §1, §2

MAGL = target: T3, MAGL (Mus musculus, UniProt O35678); test: In vitro competitive activity-based protein profiling (FP-Rh), mouse MAGL; conditions: 30 min preincubation at 37° C.
T3 sequence (O35678 1-303): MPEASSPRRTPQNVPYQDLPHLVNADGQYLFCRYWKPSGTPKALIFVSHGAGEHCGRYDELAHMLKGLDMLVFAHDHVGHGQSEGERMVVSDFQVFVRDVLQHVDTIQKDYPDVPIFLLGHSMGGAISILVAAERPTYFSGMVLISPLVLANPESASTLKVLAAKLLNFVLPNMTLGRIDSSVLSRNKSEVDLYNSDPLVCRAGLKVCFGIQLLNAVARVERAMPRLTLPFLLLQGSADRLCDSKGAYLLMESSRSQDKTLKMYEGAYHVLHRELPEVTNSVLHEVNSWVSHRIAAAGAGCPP
Method: as §1, §2

| SMILES | IC50 (ABHD6) [nM] | IC50 (FAAH) [nM] | IC50 (MAGL; Table 1, mouse proteome) [nM] | IC50 (MAGL; Table 2, mouse proteome) [nM] |
| --- | --- | --- | --- | --- |
| CC(C)(C)OC(=O)N1CCN(C(=O)ON2C(=O)CCC2=O)CC1 [Example 4, 1-tert-Butyl 4-(2,5-dioxopyrrolidin-1-yl) piperazine-1,4-dicarboxylate] | > 10000 | > 10000 | > 10000 | – |
| O=C(NCCc1ccc(Oc2ccccc2)cc1)ON1C(=O)CCC1=O [Example 6, 2,5-Dioxopyrrolidin-1-yl N-[2-(4-phenoxyphenyl)ethyl]carbamate] | > 10000 | 100 to 1000 | > 10000 | – |
| CCN(Cc1ccccc1)C(=O)ON1C(=O)CCC1=O [Example 9, 2,5-Dioxopyrrolidin-1-yl N-benzyl-N-ethylcarbamate] | > 10000 | > 10000 | > 10000 | – |
| CC1CCCCN1C(=O)ON1C(=O)CCC1=O (centres unmarked) [Example 10, 2,5-Dioxopyrrolidin-1-yl 2-methylpiperidine-1-carboxylate] | > 10000 | > 10000 | > 10000 | – |
| O=C1CCC(=O)N1OC(=O)N1CCCCC1CO (centres unmarked) [Example 11, 2,5-Dioxopyrrolidin-1-yl 2-(hydroxymethyl)piperidine-1-carboxylate] | > 10000 | > 10000 | > 10000 | – |
| CN(Cc1cccc(-c2ccncc2)c1)C(=O)ON1C(=O)CCC1=O [Example 12, 2,5-Dioxopyrrolidin-1-yl N-methyl-N-{[3-(pyridin-4-yl)phenyl]methyl}carbamate] | 100 to 1000 | > 10000 | 1000 to 10000 | – |
| Cc1nc(-c2cccc(CN(C)C(=O)ON3C(=O)CCC3=O)c2)no1 [Example 14, 2,5-Dioxopyrrolidin-1-yl N-methyl-N-{[3-(5-methyl-1,2,4-oxadiazol-3-yl)phenyl]methyl}carbamate] | 100 to 1000 | > 10000 | 1000 to 10000 | – |
| CN(CCc1ccccc1)C(=O)ON1C(=O)CCC1=O [Example 15, 2,5-Dioxopyrrolidin-1-yl N-methyl-N-(2-phenylethyl)carbamate] | > 10000 | > 10000 | > 10000 | – |
| O=C(C1CCCCN1C(=O)ON1C(=O)CCC1=O)N1CCOCC1 (centres unmarked) [Example 16, 2,5-Dioxopyrrolidin-1-yl 2-(morpholine-4-carbonyl)piperidine-1-carboxylate] | > 10000 | > 10000 | > 10000 | – |
| O=C(ON1C(=O)CCC1=O)N1CCCCC1 [Example 17, 2,5-Dioxopyrrolidin-1-yl piperidine-1-carboxylate] | – | > 10000 | > 10000 | – |
| CCCN(Cc1ccc(N2CCCCC2)cc1)C(=O)ON1C(=O)CCC1=O [Example 19, 2,5-Dioxopyrrolidin-1-yl N-{[4-(piperidin-1-yl)phenyl]methyl}-N-propylcarbamate] | > 10000 | > 10000 | > 10000 | – |
| O=C(NC1CCCc2ccccc21)ON1C(=O)CCC1=O (centres unmarked) [Example 20, 2,5-Dioxopyrrolidin-1-yl N-(1,2,3,4-tetrahydronaphthalen-1-yl)carbamate] | > 10000 | > 10000 | > 10000 | – |
| O=C1CCC(=O)N1OC(=O)N1CCCCC1Cc1ccccc1 (centres unmarked) [Example 22, 2,5-Dioxopyrrolidin-1-yl 2-benzylpiperidine-1-carboxylate] | > 10000 | > 10000 | > 10000 | – |
| O=C1CCC(=O)N1OC(=O)N1CCCCC1C(F)(F)F (centres unmarked) [Example 24, 2,5-Dioxopyrrolidin-1-yl 2-(trifluoromethyl)piperidine-1-carboxylate] | > 10000 | > 10000 | > 10000 | – |
| C#CCCC(=O)N1CCN(C(=O)ON2C(=O)CCC2=O)CC1 [Example 26, 2,5-Dioxopyrrolidin-1-yl 4-(pent-4-ynoyl)piperazine-1-carboxylate] | > 10000 | > 10000 | > 10000 | – |
| CN(C)C(=O)ON1C(=O)CNC1=O [Example 58, 2,5-Dioxoimidazolidin-1-yl dimethylcarbamate] | – | > 10000 | – | – |
| Cc1cc(N2CCOCC2)ccc1CN1CCN(C(=O)ON2C(=O)CCC2=O)CC1 [Example 63, 2,5-Dioxopyrrolidin-1-yl 4-(2-methyl-4-morpholinobenzyl)piperazine-1-carboxylate] | – | – | – | 1000 to 10000 |
| O=C(ON1C(=O)CCC1=O)N1CCN(Cc2ccc(Br)cc2N2CCCC2)CC1 [Example 72, 2,5-Dioxopyrrolidin-1-yl 4-(4-bromo-2-(pyrrolidin-1-yl)benzyl)piperazine-1-carboxylate] | – | – | – | < 100 |

Results, then the molecule that gave them:

| IC50 (ABHD6) [nM] | IC50 (FAAH) [nM] | IC50 (MAGL; Table 1, mouse proteome) [nM] | IC50 (MAGL; Table 2, mouse proteome) [nM] | SMILES |
| --- | --- | --- | --- | --- |
| 100 to 1000 | > 10000 | – | – | O=C(ON1C(=O)CCC1=O)N1CCN(C(c2ccc(Cl)cc2)c2ccc(Cl)cc2)CC1 [Example 2, 2,5-Dioxopyrrolidin-1-yl 4-[bis(4-chlorophenyl)methyl]piperazine-1-carboxylate] |
| > 10000 | > 10000 | > 10000 | – | CN(Cc1cccc(-c2cccnc2)c1)C(=O)ON1C(=O)CCC1=O [Example 13, 2,5-Dioxopyrrolidin-1-yl N-methyl-N-{[3-(pyridin-3-yl)phenyl]methyl}carbamate] |
| 1000 to 10000 | > 10000 | 100 to 1000 | – | Cc1cc(N2CCN(C(=O)ON3C(=O)CCC3=O)CC2)c2ccccc2n1 [Example 18, 2,5-Dioxopyrrolidin-1-yl 4-(2-methylquinolin-4-yl)piperazine-1-carboxylate] |
| 100 to 1000 | 1000 to 10000 | 100 to 1000 | – | O=C(ON1C(=O)CCC1=O)N1CCC(Cc2ccccc2)CC1 [Example 21, 2,5-Dioxopyrrolidin-1-yl 4-benzylpiperidine-1-carboxylate] |
| > 10000 | > 10000 | > 10000 | – | O=C1CCC(=O)N1OC(=O)N1CCCCC1c1ccccc1 (centres unmarked) [Example 23, 2,5-Dioxopyrrolidin-1-yl 2-phenylpiperidine-1-carboxylate] |
| > 10000 | > 10000 | > 10000 | – | O=C1CCC(=O)N1OC(=O)N1CCCCC1CCc1ccccc1 (centres unmarked) [Example 25, 2,5-Dioxopyrrolidin-1-yl 2-(2-phenylethyl)piperidine-1-carboxylate] |
| > 10000 | – | > 10000 | – | O=C(NCCc1ccc2ccccc2c1)ON1C(=O)CCC1=O [Example 27, 2,5-Dioxopyrrolidin-1-yl N-[2-(naphthalen-2-yl)ethyl]carbamate] |
| – | > 10000 | > 10000 | – | O=C(ON1C(=O)CCC1=O)N1CC[C@@H](OCc2ccccc2)C1 [Example 39, 2,5-Dioxopyrrolidin-1-yl (3R)-3-(benzyloxy)pyrrolidine-1-carboxylate] |
| – | > 10000 | > 10000 | – | O=C(ON1C(=O)CCC1=O)N1CC[C@H](OCc2ccccc2)C1 [Example 40, 2,5-Dioxopyrrolidin-1-yl (3S)-3-(benzyloxy)pyrrolidine-1-carboxylate] |
| – | – | – | 100 to 1000 | O=C(ON1C(=O)CCC1=O)N1CCN(Cc2ccc(Cl)cc2)CC1 [Example 64, 2,5-Dioxopyrrolidin-1-yl 4-(4-chlorobenzyl)piperazine-1-carboxylate] |
| – | – | – | 100 to 1000 | CC1CN(C(=O)ON2C(=O)CCC2=O)CCN1C(c1ccc(Cl)cc1)c1ccc(Cl)cc1 (centres unmarked) [Example 151, 2,5-Dioxopyrrolidin-1-yl 4-[bis(4-chlorophenyl)methyl]-3-methylpiperazine-1-carboxylate] |
| – | – | – | 100 to 1000 | CC1CN(C(=O)ON2C(=O)CCC2=O)CCN1Cc1ccc(-c2ccccc2)cc1 (centres unmarked) [Example 160, 2,5-Dioxopyrrolidin-1-yl 3-methyl-4-[(4-phenylphenyl)methyl]piperazine-1-carboxylate] |
| – | – | – | 100 to 1000 | O=C(ON1C(=O)CCC1=O)N1CCN(Cc2ccc(-c3ccccc3)cc2N2CCOCC2)CC1 [Example 161, 2,5-Dioxopyrrolidin-1-yl 4-((3-morpholino-[1,1′-biphenyl]-4-yl)methyl)piperazine-1-carboxylate] |
